Where “and” joins values, the source holds several entries; their conditions need not be identical. Identical values can stand only once.
Experiment: Intravenous and intraduodenal (bolus) bioavailability of zanamivir from Capmul MCM L8 25, 50, 75 µL (Example 7)
Details: for Co: extrapolated to t = 0
Text: Male Sprague-Dawley rats (Hilltop Labs), 3 animals per treatment group, 250-350 grams in weight, were fitted with a jugular vein cannula (JVC). Animals intended for intraduodenal dosing were also fitted with one or more intraduodenal cannula (IDC) and those intended for intravenous dosing were fitted with a second JVC. Food was withheld from the animals for a minimum of twelve hours prior to test article administration and was returned approximately four hours post-dose. Water was supplied ad libitum.
Intraduodenal doses composed of 1.5 mg of zanamivir and varying amounts of an enhancer (glycerol or Capmul MCM L8) were injected directly into the duodenum via the IDC. Intravenous dosing was conducted by the injection of 1.5 mg of zanamivir in 200 μL of PBS through a JVC. For some experiments, the absorption enhancer was administered intraduodenally 2 hr prior to administering 1.5 mg of zanamivir in PBS through a second IDC. Each intraduodenal dose was followed with the introduction of a small air bubble (˜10 μL) in the cannula followed by a flush of 125 μL of PBS to ensure the dose was given in full. The volume of PBS used for cannula flush was consistent across the treatment groups. The cannula was tied to prevent the PBS remaining in the cannula from entering the duodenum.
Blood samples collected via the JVC, approximately 400 μL each, were obtained at 2 min, 5 min, 15 min, 30 min, 60 min, 90 min, and 120 min, with sodium heparin used as an anti-coagulant. Each sample was placed into a chilled tube containing the anticoagulant and kept on ice until centrifugation at 4° C., 3,000×g, for 5 min. The plasma supernatants were stored at −70° C. until LC-MS analysis.
Dosing solution samples were assayed by LC-MS/MS using electrospray ionization. The chromatographic system consisted of Perkin Elmer series 200 micropumps and autosampler equipped with a Waters Atlantic® HILIC Silica 3 μM, 2.1×50 mm column. The mass spectrometer was a PE Sciex API 4000 with electrospray interface in multiple reaction monitoring mode. […] Stock solutions (1 mg/mL zanamivir) were prepared in water. Standards (eight concentrations) were prepared in the appropriate matched matrix (HBSSg or Sprague-Dawley rat plasma containing sodium heparin) and diluted 50-fold with methanol. Experimental samples were treated identically.
Standards and samples were prepared in Sprague Dawley rat plasma containing sodium heparin as an anticoagulant. An eight-point calibration curve was prepared at concentrations of 1000, 750, 500, 250, 100, 50, 25, and 10 ng/mL by serial dilution. Standard samples were treated identically to the study samples.
Plasma samples were extracted by protein precipitation in methanol.
In this example, the bioavailability of Zanamivir was evaluated after intraduodenal doses in male Sprague-Dawley rats. The test compound was dosed at 1.5 mg/animal through intravenous and intraduodenal routes from normal saline and Capmul MCM L8 formulations, respectively. Plasma levels were determined by LC-MS/MS analysis. Pharmacokinetic parameters were estimated by a non-compartmental model using WinNonlin v5.2.1 software.
Each ID dose in groups 2-4 will be followed with a small air bubble ([…]) and a flush of […] of PBS to insure the dose is given in full. The volume of PBS used for cannulae flush will be maintained consistent across the animals and the treatment groups. The cannula will then be tied to help prevent the PBS remaining in the cannula from entering the duodenum.

[1] = IV 1.5 mg/animal, Normal Saline, Ex.7, individual rats

For `CC(=O)NC1C(NC(=N)N)C=C(C(=O)O)OC1C(O)C(O)CO` (stereo not drawn) [Zanamivir, 5-acetamido-4-guanidino-6-(1,2,3-trihydroxypropyl)-5,6-dihydro-4H-pyran-2-carboxylic acid], which Plasma concentration (ID bolus 1.5 mg/animal, 25 µL Capmul MCM L8, 0.25 hr, individual rats) is on record?
The Plasma concentration was 1500 ng/mL and 1380 ng/mL and 655 ng/mL.

What about the Plasma concentration (ID bolus 1.5 mg/animal, 25 µL Capmul MCM L8, 0.5 hr, individual rats) of the same compound?
Its Plasma concentration is 950 ng/mL and 647 ng/mL.

And the Plasma concentration (ID bolus 1.5 mg/animal, 25 µL Capmul MCM L8, 0.83 hr, individual rats)?
The Plasma concentration was 1960 ng/mL and 2090 ng/mL and 913 ng/mL.

What about the Plasma concentration (ID bolus 1.5 mg/animal, 25 µL Capmul MCM L8, 1.0 hr, individual rats) of the same compound?
The Plasma concentration was 378 ng/mL and 259 ng/mL.

And the Plasma concentration (ID bolus 1.5 mg/animal, 25 µL Capmul MCM L8, 1.5 hr, individual rats)?
Its Plasma concentration is 143 ng/mL and 119 ng/mL.

And the Plasma concentration (ID bolus 1.5 mg/animal, 25 µL Capmul MCM L8, 2.0 hr, individual rats)?
Its Plasma concentration is 78.2 ng/mL and 66.8 ng/mL.

And the t1/2 (ID bolus 1.5 mg/animal, 25 µL Capmul MCM L8, individual rats)?
The t1/2 was 26.4 min and 30.7 min.

What about the Plasma concentration (ID bolus 1.5 mg/animal, 50 µL Capmul MCM L8, Ex.7, 0.25 hr, individual rats) of the same compound?
Its Plasma concentration is 1400 ng/mL and 1270 ng/mL.

And the Plasma concentration (ID bolus 1.5 mg/animal, 50 µL Capmul MCM L8, Ex.7, 0.5 hr, individual rats)?
Its Plasma concentration is 985 ng/mL and 774 ng/mL.

What about the Plasma concentration (ID bolus 1.5 mg/animal, 50 µL Capmul MCM L8, Ex.7, 0.83 hr, individual rats) of the same compound?
Its Plasma concentration is 2130 ng/mL and 1600 ng/mL.

And the Plasma concentration (ID bolus 1.5 mg/animal, 50 µL Capmul MCM L8, Ex.7, 1.0 hr, individual rats)?
Its Plasma concentration is 708 ng/mL and 551 ng/mL.

And the Plasma concentration (ID bolus 1.5 mg/animal, 50 µL Capmul MCM L8, Ex.7, 1.5 hr, individual rats)?
The Plasma concentration was 299 ng/mL and 217 ng/mL.

What about the Plasma concentration (ID bolus 1.5 mg/animal, 50 µL Capmul MCM L8, Ex.7, 2.0 hr, individual rats) of the same compound?
The Plasma concentration was 158 ng/mL and 99.5 ng/mL.

What about the t1/2 (ID bolus 1.5 mg/animal, 50 µL Capmul MCM L8, Ex.7, individual rats) of the same compound?
Its t1/2 is 27.7 min and 24.3 min.

What about the Plasma concentration (IV 1.5 mg/animal, Normal Saline, Ex.7, 0.033 hr, individual rats) of the same compound?
Its Plasma concentration is 22900 ng/mL and 20400 ng/mL.

And the Plasma concentration (IV 1.5 mg/animal, Normal Saline, Ex.7, 0.083 hr, individual rats)?
The Plasma concentration was 12300 ng/mL and 13500 ng/mL.

What about the Plasma concentration (IV 1.5 mg/animal, Normal Saline, Ex.7, 0.25 hr, individual rats) of the same compound?
Its Plasma concentration is 9620 ng/mL and 11600 ng/mL.

And the Plasma concentration (IV 1.5 mg/animal, Normal Saline, Ex.7, 0.5 hr, individual rats)?
Its Plasma concentration is 5500 ng/mL and 6450 ng/mL.

What about the Plasma concentration (IV 1.5 mg/animal, Normal Saline, Ex.7, 1.0 hr, individual rats) of the same compound?
Its Plasma concentration is 1520 ng/mL and 2190 ng/mL.

And the Plasma concentration (IV 1.5 mg/animal, Normal Saline, Ex.7, 1.5 hr, individual rats)?
The Plasma concentration was 661 ng/mL and 862 ng/mL.

What about the Plasma concentration (IV 1.5 mg/animal, Normal Saline, Ex.7, 2.0 hr, individual rats) of the same compound?
Its Plasma concentration is 220 ng/mL and 432 ng/mL.

What about the Co [1] of the same compound?
Its Co is 32061 ng/mL and 34657 ng/mL and 26863 ng/mL.

What about the Co (IV 1.5 mg/animal, Normal Saline, Ex.7, mean) of the same compound?
The Co was 31194 ± 3968 ng/mL and 31194 ng/mL.

What about the CL [1] of the same compound?
Its CL is 10.7 mL/min/kg and 9.52 mL/min/kg.

What about the T1/2 [1] of the same compound?
The T1/2 was 21.5 min and 25.6 min.

What about the Vss [1] of the same compound?
Its Vss is 0.260 L/kg and 0.278 L/kg.

What about the half-life (male, Sprague-Dawley, rat, in vivo, 1.5 mg, average half-life, ID bolus 1.5 mg/animal, 75 µL Capmul MCM L8) of the same compound?
Its half-life is 24.9 ± 3.78 min.

And the bioavailability (male, Sprague-Dawley, rat, in vivo, 1.5 mg, overall percent bioavailability)?
Its bioavailability is 25%.

And the half-life (male, Sprague-Dawley, rat, in vivo, 1.5 mg, t1/2, ID bolus 1.5 mg/animal, 25 µL Capmul MCM L8, individual rats)?
The half-life was 24.5 min.

And the half-life (male, Sprague-Dawley, rat, in vivo, 1.5 mg, t1/2, ID bolus 1.5 mg/animal, 25 µL Capmul MCM L8, mean)?
Its half-life is 27.2 ± 3.18 min.

What about the half-life (male, Sprague-Dawley, rat, in vivo, 1.5 mg, t1/2, ID bolus 1.5 mg/animal, 50 µL Capmul MCM L8, Ex.7, individual rats) of the same compound?
Its half-life is 21.8 min.

And the half-life (male, Sprague-Dawley, rat, in vivo, 1.5 mg, t1/2, ID bolus 1.5 mg/animal, 50 µL Capmul MCM L8, Ex.7, mean)?
The half-life was 24.6 min.

What about the half-life (male, Sprague-Dawley, rat, in vivo, 1.5 mg, t1/2, intraduodenal bolus, 1.5 mg/animal, 75 μL Capmul MCM L8, mean of 3 rats) of the same compound?
Its half-life is 24.9 min.

What about the half-life (male, Sprague-Dawley, rat, in vivo, 1.5 mg, t1/2, intraduodenal bolus, 1.5 mg/animal, 75 μL Capmul MCM L8, rat 963) of the same compound?
Its half-life is 29.2 min.

And the half-life (male, Sprague-Dawley, rat, in vivo, 1.5 mg, t1/2, intraduodenal bolus, 1.5 mg/animal, 75 μL Capmul MCM L8, rat 964)?
Its half-life is 21.9 min.

And the half-life (male, Sprague-Dawley, rat, in vivo, 1.5 mg, t1/2, intraduodenal bolus, 1.5 mg/animal, 75 μL Capmul MCM L8, rat 965)?
Its half-life is 23.6 min.

And the half-life (male, Sprague-Dawley, rat, in vivo, 1.5 mg, t1/2, summary, intraduodenal, 1.5 mg/animal, 25 μL Capmul MCM L8)?
Its half-life is 27.2 min.

What about the half-life (male, Sprague-Dawley, rat, in vivo, 1.5 mg, t1/2, summary, intraduodenal, 1.5 mg/animal, 50 μL Capmul MCM L8) of the same compound?
Its half-life is 24.6 min.

What about the half-life (male, Sprague-Dawley, rat, in vivo, 1.5 mg, t1/2, summary, intraduodenal, 1.5 mg/animal, 75 μL Capmul MCM L8) of the same compound?
The half-life was 24.9 min.

And the Tmax (male, Sprague-Dawley, rat, in vivo, 1.5 mg, tmax, intraduodenal bolus, 1.5 mg/animal, 75 μL Capmul MCM L8, rat 964)?
Its Tmax is 15 min.

What about the concentration at 0.25 hr (male, Sprague-Dawley, rat, in vivo, 1.5 mg/animal, Plasma concentration, ID bolus 1.5 mg/animal, 25 µL Capmul MCM L8, 0.25 hr, mean) of the same compound?
The concentration at 0.25 hr was 1180 ng/mL.

What about the concentration at 0.5 hr (male, Sprague-Dawley, rat, in vivo, 1.5 mg/animal, Plasma concentration, ID bolus 1.5 mg/animal, 25 µL Capmul MCM L8, 0.5 hr, individual rats) of the same compound?
Its concentration at 0.5 hr is 916 ng/mL.

What about the concentration at 0.5 hr (male, Sprague-Dawley, rat, in vivo, 1.5 mg/animal, Plasma concentration, ID bolus 1.5 mg/animal, 25 µL Capmul MCM L8, 0.5 hr, mean) of the same compound?
Its concentration at 0.5 hr is 838 ng/mL.

What about the concentration at 0.83 hr (male, Sprague-Dawley, rat, in vivo, 1.5 mg/animal, Plasma concentration, ID bolus 1.5 mg/animal, 25 µL Capmul MCM L8, 0.83 hr, mean) of the same compound?
The concentration at 0.83 hr was 1650 ng/mL.

And the concentration at 1 hr (male, Sprague-Dawley, rat, in vivo, 1.5 mg/animal, Plasma concentration, ID bolus 1.5 mg/animal, 25 µL Capmul MCM L8, 1.0 hr, individual rats)?
Its concentration at 1 hr is 387 ng/mL.

What about the concentration at 1 hr (male, Sprague-Dawley, rat, in vivo, 1.5 mg/animal, Plasma concentration, ID bolus 1.5 mg/animal, 25 µL Capmul MCM L8, 1.0 hr, mean) of the same compound?
The concentration at 1 hr was 341 ng/mL.

And the concentration at 1.5 hr (male, Sprague-Dawley, rat, in vivo, 1.5 mg/animal, Plasma concentration, ID bolus 1.5 mg/animal, 25 µL Capmul MCM L8, 1.5 hr, individual rats)?
Its concentration at 1.5 hr is 145 ng/mL.

What about the concentration at 1.5 hr (male, Sprague-Dawley, rat, in vivo, 1.5 mg/animal, Plasma concentration, ID bolus 1.5 mg/animal, 25 µL Capmul MCM L8, 1.5 hr, mean) of the same compound?
Its concentration at 1.5 hr is 136 ng/mL.

What about the concentration at 2 hr (male, Sprague-Dawley, rat, in vivo, 1.5 mg/animal, Plasma concentration, ID bolus 1.5 mg/animal, 25 µL Capmul MCM L8, 2.0 hr, individual rats) of the same compound?
The concentration at 2 hr was 70.7 ng/mL.

What about the concentration at 2 hr (male, Sprague-Dawley, rat, in vivo, 1.5 mg/animal, Plasma concentration, ID bolus 1.5 mg/animal, 25 µL Capmul MCM L8, 2.0 hr, mean) of the same compound?
The concentration at 2 hr was 71.9 ng/mL.

And the concentration at 0.25 hr (male, Sprague-Dawley, rat, in vivo, 1.5 mg/animal, Plasma concentration, ID bolus 1.5 mg/animal, 50 µL Capmul MCM L8, Ex.7, 0.25 hr, individual rats)?
Its concentration at 0.25 hr is 2060 ng/mL.

What about the concentration at 0.25 hr (male, Sprague-Dawley, rat, in vivo, 1.5 mg/animal, Plasma concentration, ID bolus 1.5 mg/animal, 50 µL Capmul MCM L8, Ex.7, 0.25 hr, mean) of the same compound?
Its concentration at 0.25 hr is 1580 ng/mL.

What about the concentration at 0.5 hr (male, Sprague-Dawley, rat, in vivo, 1.5 mg/animal, Plasma concentration, ID bolus 1.5 mg/animal, 50 µL Capmul MCM L8, Ex.7, 0.5 hr, individual rats) of the same compound?
Its concentration at 0.5 hr is 1250 ng/mL.

And the concentration at 0.5 hr (male, Sprague-Dawley, rat, in vivo, 1.5 mg/animal, Plasma concentration, ID bolus 1.5 mg/animal, 50 µL Capmul MCM L8, Ex.7, 0.5 hr, mean)?
The concentration at 0.5 hr was 1000 ng/mL.
